The values below come from patent publication US20260297080A1, “BICYCLIC COMPOUNDS AS CDK INHIBITORS” (BeOne Medicines I GmbH, priority 2022, published 2026).

The target of assay [1] is CDK1/Cyclin B1 (Homo sapiens, UniProt P06493). The experiment in a line: CDK1/Cyclin B1 Biochemical Assay (TR-FRET), 0.015 mM ATP. Particulars: 0.15 μM Rb (Ser780)-biotin substrate, pH7.0, 60 min preincubation, 120 min reaction, room temperature. The essentials:
(§1)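 Enzyme + cpd (0–10 μM), 60 min RT; add ATP + 0.15 μM Rb(Ser780)-biotin, 120 min RT; 50 mM HEPES pH 7.0, 50 mM MgCl2, 1 mM DTT, 0.1 mM orthovanadate. Stop/detect with Eu anti-pRb + SA-XL665, 60 min; ratio 665/620 nm; IC50 by 4PL fit.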
A general note: Time-resolved FRET reads energy transfer from a long-lived donor to a nearby acceptor.

The target of assay [2] is CDK2/Cyclin E1 (Homo sapiens, UniProt P24941). Nature of the assay: CDK2/Cyclin E1 Biochemical Assay (TR-FRET), 0.060 mM ATP. As to conditions: 0.15 μM Rb (Ser780)-biotin substrate, pH7.0, 60 min preincubation, 120 min reaction, room temperature. The procedure, abridged: as §1

What is called IC50 is the concentration that inhibits the measured activity by half. A low value points to greater potency.

Chain of CDK1/Cyclin B1 (P06493 whole entry): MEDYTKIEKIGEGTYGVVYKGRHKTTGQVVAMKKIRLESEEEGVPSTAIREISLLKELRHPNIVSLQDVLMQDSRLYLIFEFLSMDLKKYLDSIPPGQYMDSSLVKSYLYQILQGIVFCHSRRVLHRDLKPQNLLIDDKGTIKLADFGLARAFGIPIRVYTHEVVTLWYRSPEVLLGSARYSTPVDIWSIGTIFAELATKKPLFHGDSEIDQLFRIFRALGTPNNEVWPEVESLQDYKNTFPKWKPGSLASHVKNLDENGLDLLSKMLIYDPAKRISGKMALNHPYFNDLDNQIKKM
Chain of CDK1/Cyclin B1 (P14635 whole entry partner): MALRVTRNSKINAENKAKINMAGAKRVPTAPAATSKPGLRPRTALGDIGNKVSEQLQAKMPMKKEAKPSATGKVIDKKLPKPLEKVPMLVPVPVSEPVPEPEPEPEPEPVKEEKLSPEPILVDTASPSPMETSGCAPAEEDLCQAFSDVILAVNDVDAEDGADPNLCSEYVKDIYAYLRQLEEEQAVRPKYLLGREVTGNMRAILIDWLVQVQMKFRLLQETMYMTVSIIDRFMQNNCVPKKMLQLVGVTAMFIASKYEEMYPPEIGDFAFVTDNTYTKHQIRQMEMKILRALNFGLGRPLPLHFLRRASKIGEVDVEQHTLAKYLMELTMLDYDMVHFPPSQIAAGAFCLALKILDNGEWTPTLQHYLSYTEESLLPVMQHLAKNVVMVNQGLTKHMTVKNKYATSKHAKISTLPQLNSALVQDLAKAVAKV

Regarding `CC1(NC(=O)O[C@H]2CC[C@@H](c3cc(Nc4ccc5c(c4F)CN(CCO)S5(=O)=O)n[nH]3)C2)CC1` (single isomer, unassigned) [Example 128a, cis-3-(3-((4-fluoro-2-(2-hydroxyethyl)-1,1-dioxido-2,3-dihydrobenzo[d]isothiazol-5-yl)amino)-1H-pyrazol-5-yl)cyclopentyl(1-methylcyclopropyl)carbamate], the IC50 in assay [1] was determined as 192 nM; in assay [2], 2.7 nM.

For the molecule `CC(C)NC(=O)O[C@H]1CC[C@@H](c2cc(Nc3ccc4c(c3F)CN(CCO)S4(=O)=O)n[nH]2)C1` (single isomer, unassigned) [Example 125b, cis-3-(3-((4-fluoro-2-(2-hydroxyethyl)-1,1-dioxido-2,3-dihydrobenzo[d]isothiazol-5-yl)amino)-1H-pyrazol-5-yl)cyclopentyl isopropylcarbamate], the IC50 in assay [1] was 341 nM; in assay [2], 4.9 nM.

Take `CC(C)NC(=O)O[C@H]1CC[C@@H](c2cc(Nc3cc4c(cc3F)N(CCO)S(=O)(=O)C4)n[nH]2)C1` (single isomer, unassigned) [Example 296b, cis-3-(3-((6-fluoro-1-(2-hydroxyethyl)-2,2-dioxido-1,3-dihydrobenzo[c]isothiazol-5-yl)amino)-1H-pyrazol-5-yl)cyclopentyl isopropylcarbamate]: the values for the IC50 in assay [1] and in assay [2] were 497 nM and 8.4 nM, respectively.

Take `CC(C)NC(=O)O[C@H]1CC[C@@H](c2cc(Nc3ccc4c(c3)C3(CC3)S(=O)(=O)N4C)n[nH]2)C1` (relative stereo) [Example 201, cis-3-(3-((1-methyl-2,2-dioxido-1H-spiro[benzo[c]isothiazole-3,l′-cyclopropan]-5-yl)amino-1H-pyrazol-5-yl)cyclopentyl isopropylcarbamate]: the values for the IC50 in assay [1] and in assay [2] were 130 nM and 11 nM, respectively.

`CC(CC(F)(F)F)NC(=O)O[C@H]1CC[C@@H](c2cc(Nc3cc4c(cc3F)S(=O)(=O)NC4)n[nH]2)C1` (relative stereo) [Example 412, cis-3-(3-((6-fluoro-1,1-dioxido-2,3-dihydrobenzo[d]isothiazol-5-yl)amino)-1H-pyrazol-5-yl)cyclopentyl(4,4,4-trifluorobutan-2-yl)carbamate]: the IC50 in assay [1] came out at 147 nM; in assay [2], 1.8 nM.

With `CC(C)NC(=O)O[C@H]1CC[C@@H](c2cc(Nc3ccc4c(c3F)CS(=O)(=O)N4)n[nH]2)C1` (single isomer, unassigned) [Example 251b], the IC50 in assay [1] is 31 nM; in assay [2], 1 nM.

For `CC1(NC(=O)O[C@H]2CC[C@@H](c3cc(Nc4ccc5c(c4F)CNS5(=O)=O)n[nH]3)C2)COC1` (racemic) [Example 164, cis-3-(3-((4-fluoro-1,1-dioxido-2,3-dihydrobenzo[d]isothiazol-5-yl)amino)-1H-pyrazol-5-yl)cyclopentyl(3-methyloxetan-3-yl)carbamate], the IC50 in assay [1] was 294 nM; in assay [2], 5 nM.

On to `CC(C)(C)NC(=O)O[C@H]1CC[C@@H](c2cc(Nc3cc4c(cc3F)NS(=O)(=O)C4)n[nH]2)C1` [Example 404b], for which the IC50 in assay [1] worked out at 458 nM; in assay [2], 14 nM.

In the case of `COCC1(NC(=O)O[C@H]2CC[C@@H](c3cc(Nc4ccc5c(c4F)CNS5(=O)=O)n[nH]3)C2)CC1` (racemic) [Example 158, cis-3-(3-((4-fluoro-1,1-dioxido-2,3-dihydrobenzo[d]isothiazol-5-yl)amino)-1H-pyrazol-5-yl)cyclopentyl(1-(methoxymethyl)cyclopropyl)carbamate], the figures for the IC50 in assay [1] and in assay [2] were 123 nM and 3.1 nM, respectively.

With `CC(C)NC(=O)O[C@H]1CC[C@@H](c2cc(Nc3ccc4c(c3F)CN(C3CCOC3)S4(=O)=O)n[nH]2)C1` (relative stereo) [Example 69, cis-3-(3-((4-fluoro-1,1-dioxido-2-(tetrahydrofuran-3-yl)-2,3-dihydrobenzo[d]isothiazol-5-yl)amino)-1H-pyrazol-5-yl)cyclopentyl isopropylcarbamate], the figures for the IC50 in assay [1] and in assay [2] were 647 nM and 9.5 nM, respectively.

For the molecule `CC(C)NC(=O)O[C@H]1CC[C@@H](c2cc(Nc3ccc4c(c3)CC(=O)NS4(=O)=O)n[nH]2)C1` (relative stereo) [Example 171, cis-3-(3-((1,1-dioxido-3-oxo-3,4-dihydro-2H-benzo[e][1,2]thiazin-6-yl)amino)-1H-pyrazol-5-yl)cyclopentyl isopropylcarbamate], the figures for the IC50 in assay [1] and in assay [2] were 183 nM and 10 nM, respectively.

In the case of `CC(C)NC(=O)O[C@H]1CC[C@@H](c2cc(Nc3ccc4c(c3F)CN(CC3CN(C)C3)S4(=O)=O)n[nH]2)C1` (relative stereo) [Example 106, cis-3-(3-((4-fluoro-2-((1-methylazetidin-3-yl)methyl)-1,1-dioxido-2,3-dihydrobenzo[d]isothiazol-5-yl)amino)-1H-pyrazol-5-yl)cyclopentyl isopropylcarbamate], the IC50 is 631 nM in assay [1] and 6 nM in assay [2].

For `CC(C)NC(=O)O[C@H]1CC[C@@H](c2cc(Nc3ccc4c(c3F)C(=O)NS4(=O)=O)n[nH]2)C1` (relative stereo) [Example 59, cis-3-(3-((4-fluoro-1,1-dioxido-3-oxo-2,3-dihydrobenzo[d]isothiazol-5-yl)amino)-1H-pyrazol-5-yl)cyclopentyl isopropylcarbamate], the IC50 stood at 296 nM in assay [1] and 5.8 nM in assay [2].

For the molecule `CC1(NC(=O)O[C@H]2CC[C@@H](c3cc(Nc4ccc5c(c4F)CNS5(=O)=O)n[nH]3)C2)CC1` (single isomer, unassigned) [Example 140b, cis-3-(3-((4-fluoro-1,1-dioxido-2,3-dihydrobenzo[d]isothiazol-5-yl)amino)-1H-pyrazol-5-yl)cyclopentyl(1-methylcyclopropyl)carbamate], the IC50 is 38 nM in assay [1] and 1.4 nM in assay [2].

Take `CN1c2ccc(Nc3cc([C@@H]4CC[C@H](OC(=O)NC(C)(C)C)C4)[nH]n3)cc2CS1(=O)=O` [Example 391b]: the IC50 in assay [1] stood at 7.8 nM; in assay [2], 0.9 nM.

In the case of `CC(C)(C)NC(=O)O[C@@H]1CC[C@H](c2cc(Nc3ccc4c(c3)CS(=O)(=O)N4)n[nH]2)C1` [Example 403a], the IC50 in assay [1] worked out at 10 nM; in assay [2] it was 1 nM.

As for `CC[C@H](C)NC(=O)O[C@H]1CC[C@@H](c2cc(Nc3ccc4c(c3F)C(C)NS4(=O)=O)n[nH]2)C1` (single isomer, unassigned) [Example 54a], the IC50 turned out to be 309 nM in assay [1] and 1.1 nM in assay [2].

For the molecule `CC1(NC(=O)O[C@H]2CC[C@@H](c3cc(Nc4ccc5c(c4F)CNS5(=O)=O)n[nH]3)C2)CCOC1` (single isomer, unassigned) [Example 162c, cis-3-(3-((4-fluoro-1,1-dioxido-2,3-dihydrobenzo[d]isothiazol-5-yl)amino)-1H-pyrazol-5-yl)cyclopentyl(3-methyltetrahydrofuran-3-yl)carbamate], the IC50 in assay [1] worked out at 408 nM; in assay [2] it was 3.1 nM.

For `CN1c2ccc(Nc3cc([C@@H]4CC[C@H](OC(=O)NC5(CO)CC5)C4)[nH]n3)c(F)c2CS1(=O)=O` (relative stereo) [Example 350, cis-3-(3-((4-fluoro-1-methyl-2,2-dioxido-1,3-dihydrobenzo[c]isothiazol-5-yl)amino)-1H-pyrazol-5-yl)cyclopentyl(1-(hydroxymethyl)cyclopropyl)carbamate], the IC50 in assay [1] was found to be 321 nM; in assay [2], 20 nM.

Regarding `CC(C)NC(=O)O[C@H]1CC[C@@H](c2cc(Nc3ccc4c(c3)S(=O)(=O)NC4C)[nH]n2)C1` (single isomer, unassigned) [Example 5d, cis-3-(5-((3-methyl-1,1-dioxido-2,3-dihydrobenzo[d]isothiazol-6-yl)amino)-1H-pyrazol-3-yl)cyclopentyl isopropylcarbamate], the IC50 in assay [1] is 45 nM; in assay [2], 2.9 nM.

As for `O=C(NCC1COC1)O[C@H]1CC[C@@H](c2cc(Nc3ccc4c(c3F)CNS4(=O)=O)n[nH]2)C1` (relative stereo) [Example 148, cis-3-(3-((4-fluoro-1,1-dioxido-2,3-dihydrobenzo[d]isothiazol-5-yl)amino)-1H-pyrazol-5-yl)cyclopentyl(oxetan-3-ylmethyl)carbamate], the IC50 in assay [1] was determined as 523 nM; in assay [2], 44 nM.

As for `O=C(NC1(CO)CC1)O[C@H]1CC[C@@H](c2cc(Nc3ccc4c(c3F)CN(C3CC3)S4(=O)=O)n[nH]2)C1` (relative stereo) [Example 360, cis-3-(3-((2-cyclopropyl-4-fluoro-1,1-dioxido-2,3-dihydrobenzo[d]isothiazol-5-yl)amino)-1H-pyrazol-5-yl)cyclopentyl(1-(hydroxymethyl)cyclopropyl)carbamate], the IC50 in assay [1] was determined as 358 nM; in assay [2], 12 nM.

As for `CC(C)NC(=O)O[C@@H]1CC[C@H](c2cc(Nc3ccc4c(c3)S(=O)(=O)CN4C(=O)OC(C)(C)C)n[nH]2)C1` (relative stereo) [Example 318, cis-tert-butyl 6-((5-(3-((isopropylcarbamoyl)oxy)cyclopentyl)-1H-pyrazol-3-yl)amino)benzo[d]thiazole-3 (2H)-carboxylate 1,1-dioxide], the IC50 in assay [1] came out at 1750 nM; in assay [2], 257 nM.

Regarding `CC1(NC(=O)O[C@H]2CC[C@@H](c3cc(Nc4ccc5c(c4)CNS5(=O)=O)n[nH]3)C2)CC1` (relative stereo) [Example 177, cis-3-(3-((1,1-dioxido-2,3-dihydrobenzo[d]isothiazol-5-yl)amino)-1H-pyrazol-5-yl)cyclopentyl(1-methylcyclopropyl)carbamate], the figures for the IC50 in assay [1] and in assay [2] were 27 nM and 1.1 nM, respectively.
